# Test results from PMC4551390 (Leukemia, 2015).
# How the values were obtained:
# [1] = system: relapsed and refractory CLL patients; test: Phase I dose escalation: toxicity and tolerability; type: in vivo, human
# CLL cells = conditions: pre-clinical; cited from earlier work
# [2] = treatment related, all cohorts, N=52
structure (smiles),measurement,setting,value
CCc1cnn2c(NCc3ccc[n+]([O-])c3)cc(N3CCCC[C@H]3CCO)nc12 [Dinaciclib],maximally tolerated dose,[1]; 2 hour infusion weekly x 3 of every 4 weeks,14 mg/m^2
same,other patients who discontinued therapy due to toxicity,[1]; all patients,Five
same,patients off therapy for adverse events,[1]; all patients,10%
same,deaths within 30 days of last dose,"[1]; all patients, two due to disease progression",3
same,No Pts with Dose Reduction,[1]; cohort 5 mg/m^2,0
same,Pts with DLT,[1]; cohort 5 mg/m^2,0
same,No Pts with Dose Reduction,[1]; cohort 7 mg/m^2,0
same,Pts with DLT,[1]; cohort 7 mg/m^2,1
same,No Pts with Dose Reduction,[1]; cohort 10 mg/m^2,1
same,Pts with DLT,[1]; cohort 10 mg/m^2,0
same,No Pts with Dose Reduction,[1]; cohort 14 mg/m^2,5
same,Pts with TLS,[1]; cohort 14 mg/m^2,4
same,Pts with TLS (Dialysis),"[1]; cohort 14 mg/m^2, requiring dialysis",1
same,No Pts with Dose Reduction,[1]; cohort 17 mg/m^2,1
same,Pts with TLS,[1]; cohort 17 mg/m^2,1 (1)
same,Pts with TLS (Dialysis),"[1]; cohort 17 mg/m^2, requiring dialysis",1 (1)
same,No Pts with Dose Reduction,[1]; cohort 7→10→14 mg/m^2,1
same,Pts with TLS,[1]; cohort 7→10→14 mg/m^2,1 (1)
same,No Pts with Dose Reduction,[1]; cohort 10→14 mg/m^2,1
same,Pts with TLS,[1]; cohort 10→14 mg/m^2,2
same,"Anemia, Grade 1",[1]; [2],8 (15) No (%)
same,"Anemia, Grade 2",[1]; [2],17 (33) No (%)
same,"Anemia, Grade 3",[1]; [2],14 (27) No (%)
same,"Anemia, Grade 4",[1]; [2],1 (2) No (%)
same,"Anemia, Total",[1]; [2],40 (77) No (%)
same,"Constipation, Grade 1",[1]; [2],4 (8) No (%)
same,"Constipation, Grade 2",[1]; [2],1 (2) No (%)
same,"Constipation, Grade 3",[1]; [2],1 (2) No (%)
same,"Constipation, Grade 4",[1]; [2],0 (0) No (%)
same,"Constipation, Total",[1]; [2],6 (12) No (%)
same,"Cytokine release, Grade 1",[1]; [2],1 (2) No (%)
same,"Cytokine release, Grade 2",[1]; [2],6 (12) No (%)
same,"Cytokine release, Grade 3",[1]; [2],1 (2) No (%)
same,"Cytokine release, Grade 4",[1]; [2],0 (0) No (%)
same,"Cytokine release, Total",[1]; [2],8 (15) No (%)
same,"Diarrhea, Grade 1",[1]; [2],14 (27) No (%)
same,"Diarrhea, Grade 2",[1]; [2],7 (13) No (%)
same,"Diarrhea, Grade 3",[1]; [2],2 (4) No (%)
same,"Diarrhea, Grade 4",[1]; [2],0 (0) No (%)
same,"Diarrhea, Total",[1]; [2],23 (44) No (%)
same,"Fatigue, Grade 1",[1]; [2],7 (13) No (%)
same,"Fatigue, Grade 2",[1]; [2],8 (15) No (%)
same,"Fatigue, Grade 3",[1]; [2],2 (4) No (%)
same,"Fatigue, Grade 4",[1]; [2],0 (0) No (%)
same,"Fatigue, Total",[1]; [2],17(33) No (%)
same,"Herpes infection, Grade 1",[1]; [2],2 (4) No (%)
same,"Herpes infection, Grade 2",[1]; [2],1 (2) No (%)
same,"Herpes infection, Grade 3",[1]; [2],0 (0) No (%)
same,"Herpes infection, Grade 4",[1]; [2],0 (0) No (%)
same,"Herpes infection, Total",[1]; [2],3 (6) No (%)
same,"Hyperglycemia, Grade 1",[1]; [2],8 (15) No (%)
same,"Hyperglycemia, Grade 2",[1]; [2],16 (31) No (%)
same,"Hyperglycemia, Grade 3",[1]; [2],11 (21) No (%)
same,"Hyperglycemia, Grade 4",[1]; [2],0 (0) No (%)
same,"Hyperglycemia, Total",[1]; [2],35 (67) No (%)
same,"Hyperkalemia, Grade 1",[1]; [2],7 (13) No (%)
same,"Hyperkalemia, Grade 2",[1]; [2],3 (6) No (%)
same,"Hyperkalemia, Grade 3",[1]; [2],3 (6) No (%)
same,"Hyperkalemia, Grade 4",[1]; [2],3 (6) No (%)
same,"Hyperphosphatemia, Grade 1",[1]; [2],6 (12) No (%)
same,"Hyperphosphatemia, Grade 2",[1]; [2],1 (2) No (%)
same,"Hyperphosphatemia, Grade 3",[1]; [2],0 (0) No (%)
same,"Hyperphosphatemia, Grade 4",[1]; [2],0 (0) No (%)
same,"Hyperphosphatemia, Total",[1]; [2],7 (13) No (%)
same,"Hypoalbuminemia, Grade 1",[1]; [2],12 (23) No (%)
same,"Hypoalbuminemia, Grade 2",[1]; [2],3 (6) No (%)
same,"Hypoalbuminemia, Grade 3",[1]; [2],0 (0) No (%)
same,"Hypoalbuminemia, Grade 4",[1]; [2],0 (0) No (%)
same,"Hypoalbuminemia, Total",[1]; [2],15 (29) No (%)
same,"Hypocalcemia, Grade 1",[1]; [2],17 (33) No (%)
same,"Hypocalcemia, Grade 2",[1]; [2],1 (2) No (%)
same,"Hypocalcemia, Grade 3",[1]; [2],9 (17) No (%)
same,"Hypocalcemia, Grade 4",[1]; [2],0 (0) No (%)
same,"Hypocalcemia, Total",[1]; [2],27 (52) No (%)
same,"Hypokalemia, Grade 1",[1]; [2],17 (33) No (%)
same,"Hypokalemia, Grade 2",[1]; [2],1 (2) No (%)
same,"Hypokalemia, Grade 3",[1]; [2],9 (17) No (%)
same,"Hypokalemia, Grade 4",[1]; [2],0 (0) No (%)
same,"Hypokalemia, Total",[1]; [2],27 (52) No (%)
same,"Hyponatremia, Grade 1",[1]; [2],18 (35) No (%)
same,"Hyponatremia, Grade 2",[1]; [2],0 (0) No (%)
same,"Hyponatremia, Grade 3",[1]; [2],1 (2) No (%)
same,"Hyponatremia, Grade 4",[1]; [2],0 (0) No (%)
same,"Hyponatremia, Total",[1]; [2],19 (37) No (%)
same,"Hypophosphatemia, Grade 1",[1]; [2],6 (12) No (%)
same,"Hypophosphatemia, Grade 2",[1]; [2],5 (10) No (%)
same,"Hypophosphatemia, Grade 3",[1]; [2],6 (12) No (%)
same,"Hypophosphatemia, Grade 4",[1]; [2],1 (2) No (%)
same,"Hypophosphatemia, Total",[1]; [2],18 (35) No (%)
same,"Increased ALT, Grade 1",[1]; [2],6 (12) No (%)
same,"Increased ALT, Grade 2",[1]; [2],9 (17) No (%)
same,"Increased ALT, Grade 3",[1]; [2],5 (10) No (%)
same,"Increased ALT, Grade 4",[1]; [2],0 (0) No (%)
same,"Increased ALT, Total",[1]; [2],20 (38) No (%)
same,"Increased AST, Grade 1",[1]; [2],11 (21) No (%)
same,"Increased AST, Grade 2",[1]; [2],8 (15) No (%)
same,"Increased AST, Grade 3",[1]; [2],13 (25) No (%)
same,"Increased AST, Grade 4",[1]; [2],2 (4) No (%)
same,"Increased AST, Total",[1]; [2],34 (65) No (%)
same,"Increased Alkaline Phosphatase, Grade 1",[1]; [2],8 (15) No (%)
same,"Increased Alkaline Phosphatase, Grade 2",[1]; [2],1 (2) No (%)
same,"Increased Alkaline Phosphatase, Grade 3",[1]; [2],0 (0) No (%)
same,"Increased Alkaline Phosphatase, Grade 4",[1]; [2],0 (0) No (%)
same,"Increased Alkaline Phosphatase, Total",[1]; [2],9 (17) No (%)
same,"Increased bilirubin, Grade 1",[1]; [2],5 (10) No (%)
same,"Increased bilirubin, Grade 2",[1]; [2],0 (0) No (%)
same,"Increased bilirubin, Grade 3",[1]; [2],0 (0) No (%)
same,"Increased bilirubin, Grade 4",[1]; [2],0 (0) No (%)
same,"Increased bilirubin, Total",[1]; [2],5 (10) No (%)
same,"Increased creatinine, Grade 1",[1]; [2],11 (21) No (%)
same,"Increased creatinine, Grade 2",[1]; [2],3 (6) No (%)
same,"Increased creatinine, Grade 3",[1]; [2],0 (0) No (%)
same,"Increased creatinine, Grade 4",[1]; [2],0 (0) No (%)
same,"Increased creatinine, Total",[1]; [2],14 (27) No (%)
same,"Nausea, Grade 1",[1]; [2],10 (19) No (%)
same,"Nausea, Grade 2",[1]; [2],3 (6) No (%)
same,"Nausea, Grade 3",[1]; [2],0 (0) No (%)
same,"Nausea, Grade 4",[1]; [2],0 (0) No (%)
same,"Nausea, Total",[1]; [2],13 (25) No (%)
same,"Neutropenia, Grade 1",[1]; [2],3 (6) No (%)
same,"Neutropenia, Grade 2",[1]; [2],2 (4) No (%)
same,"Neutropenia, Grade 4",[1]; [2],28 (54) No (%)
same,"Neutropenia, Total",[1]; [2],44 (85) No (%)
same,"Pharyngitis/sinusitis/respiratory infection, Grade 1",[1]; [2],2 (4) No (%)
same,"Pharyngitis/sinusitis/respiratory infection, Grade 2",[1]; [2],2 (4) No (%)
same,"Pharyngitis/sinusitis/respiratory infection, Grade 3",[1]; [2],0 (0) No (%)
same,"Pharyngitis/sinusitis/respiratory infection, Grade 4",[1]; [2],0 (0) No (%)
same,"Pharyngitis/sinusitis/respiratory infection, Total",[1]; [2],4 (8) No (%)
same,"Pneumonia, Grade 1",[1]; [2],0 (0) No (%)
same,"Pneumonia, Grade 2",[1]; [2],0 (0) No (%)
same,"Pneumonia, Grade 3",[1]; [2],2 (4) No (%)
same,"Pneumonia, Total",[1]; [2],2 (4) No (%)
same,"Sepsis, Grade 1",[1]; [2],0 (0) No (%)
same,"Sepsis, Grade 2",[1]; [2],0 (0) No (%)
same,"Sepsis, Grade 3",[1]; [2],1 (2) No (%)
same,"Sepsis, Grade 4",[1]; [2],0 (0) No (%)
same,"Sepsis, Total",[1]; [2],1 (2) No (%)
same,"Thrombocytopenia, Grade 1",[1]; [2],10 (19) No (%)
same,"Thrombocytopenia, Grade 2",[1]; [2],6 (12) No (%)
same,"Thrombocytopenia, Grade 3",[1]; [2],11 (21) No (%)
same,"Thrombocytopenia, Grade 4",[1]; [2],10 (19) No (%)
same,"Thrombocytopenia, Total",[1]; [2],37 (71) No (%)
same,"Tumor lysis syndrome, Grade 1",[1]; [2],0 (0) No (%)
same,"Tumor lysis syndrome, Grade 2",[1]; [2],0 (0) No (%)
same,"Tumor lysis syndrome, Grade 3",[1]; [2],7 (13) No (%)
same,"Tumor lysis syndrome, Grade 4",[1]; [2],1 (2) No (%)
same,"Tumor lysis syndrome, Total",[1]; [2],8 (15) No (%)
same,"Urosepsis, Grade 1",[1]; [2],0 (0) No (%)
same,"Urosepsis, Grade 2",[1]; [2],0 (0) No (%)
same,"Urosepsis, Grade 3",[1]; [2],0 (0) No (%)
same,"Urosepsis, Grade 4",[1]; [2],1 (2) No (%)
same,"Urosepsis, Total",[1]; [2],1 (2) No (%)
same,therapeutic efficacy against CLL cells as compared to flavopiridol,CLL cells,improved therapeutic efficacy
